Reference: patent US20230085307A1, “PYRIDAZINONE COMPOUND AND HERBICIDE” (NISSAN CHEMICAL CORPORATION, priority 2019, published 2023)

How the values were obtained:
wild oat = experiment: Test Example 4: herbicidal effect by soil treatment (Table 19, symbol I); format: in vivo, wild oat (Avena fatua)
Summary of the method: (§1)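 Soil-surface application: an emulsion agent diluted with water to the predetermined dose is sprayed uniformly over seeds lying under roughly 1.5 cm of sterilized diluvial soil. Boxes stay in a greenhouse at 25° C. to 30° C. Three weeks later, each species is graded on previously defined criteria.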

southern crabgrass [1] = experiment: Test Example 5: herbicidal effect by foliage application, plastic box (Table 20, symbol F); format: in vivo, southern crabgrass (Digitaria ciliaris); details: foliage application, evaluated 3 weeks after application
Summary of the method: (§2)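 Sow seeds spot-wise in sterilized diluvial soil; cover with ~1.5 cm soil. Grow 14 days in greenhouse, 25° C. to 30° C. Spray foliage with emulsion diluted to predetermined amount. Rate effect after 3 weeks.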

chickweed = experiment: Test Example 4: herbicidal effect by soil treatment (Table 19, symbol P); format: in vivo, common chickweed (Stellaria media)
Summary of the method: as §1

Japanese bulrush = experiment: Test Example 1: herbicidal activity, application before weed generation under submerged conditions (Table 16, symbol B); format: in vivo, Japanese bulrush (Schoenoplectus juncoides)
Summary of the method: (§3)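 Emulsion formulation, water-diluted to set dose, was put onto the flooded surface (4 cm depth, alluvial soil) the same day weeds were sown and 2.5-leaf rice transplanted. After 3 weeks at 25-30 °C under glass, each species was rated 0 (≤5% kill) to 5 (≥90% kill).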

green foxtail = experiment: Test Example 5: herbicidal effect by foliage application, plastic box (Table 20, symbol G); format: in vivo, green foxtail (Setaria viridis); details: foliage application, evaluated 3 weeks after application
Summary of the method: as §2

barnyard grass = experiment: Test Example 3: herbicidal effect by foliage application, Wagner pot (Table 18, symbol H); format: in vivo, barnyard grass (Echinochloa crus-galli)
Summary of the method: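 Plants were sown in alluvial soil held under 0.1–0.5 cm standing water and grown 14 days in a greenhouse at 25–30 °C. An emulsifiable formulation, water-diluted to the set dose, was then sprayed onto the foliage, and effects were scored three weeks later using previously defined criteria.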

persian speedwell = experiment: Test Example 4: herbicidal effect by soil treatment (Table 19, symbol R); format: in vivo, Persian speedwell (Veronica persica)
Summary of the method: as §1

velvetleaf = experiment: Test Example 4: herbicidal effect by soil treatment (Table 19, symbol M); format: in vivo, velvetleaf (Abutilon theophrasti)
Summary of the method: as §1

southern crabgrass [2] = experiment: Test Example 4: herbicidal effect by soil treatment (Table 19, symbol F); format: in vivo, southern crabgrass (Digitaria ciliaris)
Summary of the method: as §1

redroot pigweed [3] = experiment: Test Example 5: herbicidal effect by foliage application, plastic box (Table 20, symbol N); format: in vivo, redroot pigweed (Amaranthus retroflexus); details: foliage application, evaluated 3 weeks after application
Summary of the method: as §2

windgrass = experiment: Test Example 4: herbicidal effect by soil treatment (Table 19, symbol L); format: in vivo, windgrass (Apera spica-venti)
Summary of the method: as §1

late watergrass [4] = experiment: Test Example 1: herbicidal activity, application before weed generation under submerged conditions (Table 16, symbol A); format: in vivo, late watergrass (Echinochloa oryzicola)
Summary of the method: as §3

late watergrass [5] = experiment: Test Example 2: herbicidal activity, application during weed generation under submerged conditions (Table 17, symbol A); format: in vivo, late watergrass (Echinochloa oryzicola); details: for herbicidal effect grade, A: late watergrass: application during weed generation under submerged conditions
Summary of the method: (§4)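 Effect on each weed is rated three weeks post-treatment, using the same scoring criteria as the preceding test. Plants grow from mixed-sown seed in flooded alluvial soil (4 cm water) at 25° C. to 30° C., and are treated at one to two leaves with diluted emulsion dropped onto the water.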

oval-leafed pondweed [6] = experiment: Test Example 1: herbicidal activity, application before weed generation under submerged conditions (Table 16, symbol C); format: in vivo, oval-leafed pondweed (Monochoria vaginalis)
Summary of the method: as §3

redroot pigweed [7] = experiment: Test Example 4: herbicidal effect by soil treatment (Table 19, symbol N); format: in vivo, redroot pigweed (Amaranthus retroflexus)
Summary of the method: as §1

false cleavers = experiment: Test Example 4: herbicidal effect by soil treatment (Table 19, symbol Q); format: in vivo, false cleavers (Galium spurium)
Summary of the method: as §1

oval-leafed pondweed [8] = experiment: Test Example 2: herbicidal activity, application during weed generation under submerged conditions (Table 17, symbol C); format: in vivo, oval-leafed pondweed (Monochoria vaginalis); details: for herbicidal effect grade, C: oval-leafed pondweed: application during weed generation under submerged conditions
Summary of the method: as §4

[9] = amount of applied herbicide 320 g/ha
[10] = AAH 320 g/ha, application during weed generation, submerged conditions
[11] = amount of applied herbicide 402 g/ha

SMILES | I: wild oat, herbicidal effect grade (wild oat; [9]) | F (southern crabgrass) herbicidal effect grade (southern crabgrass [1]; 320 g/ha) | P: chickweed, herbicidal effect grade (chickweed; [9]) | Herbicidal effect, B: Japanese bulrush (Japanese bulrush; [9]) | G (green foxtail) herbicidal effect grade (green foxtail; 320 g/ha) | Herbicidal effect on H (barnyard grass), foliage application (barnyard grass; [9]) | R: persian speedwell, herbicidal effect grade (persian speedwell; [9]) | M: velvetleaf, herbicidal effect grade (velvetleaf; [9]) | F: southern crabgrass, herbicidal effect grade (southern crabgrass [2]; [9]) | N (redroot pigweed) herbicidal effect grade (redroot pigweed [3]; 320 g/ha) | L: windgrass, herbicidal effect grade (windgrass; [9]) | Herbicidal effect, A: late watergrass (late watergrass [4]; [9]) | Herbicidal effect, C: oval-leafed pondweed (oval-leafed pondweed [6]; [9]) | N: redroot pigweed, herbicidal effect grade (redroot pigweed [7]; [9]) | Q: false cleavers, herbicidal effect grade (false cleavers; [9]) | herbicidal effect grade, A: late watergrass (late watergrass [5]; [9]) | herbicidal effect grade, C: oval-leafed pondweed (oval-leafed pondweed [8]; [9]) | also measured
CCCOc1ccc(-c2oc3ccc(C)cc3c2-c2c(O)c(C)nn(C)c2=O)cc1 [9-049] | 0 (Herbicidal rate of 5% or less (almost no effect)) | 5 (Herbicidal rate of 90% or more (almost completely withered)) | 4 (Herbicidal rate of 70% or more and less than 90%) | 5 (Herbicidal rate of 90% or more (almost completely withered)) | 5 (Herbicidal rate of 90% or more (almost completely withered)) | 5 (Herbicidal rate of 90% or more (almost completely withered)) | 5 (Herbicidal rate of 90% or more (almost completely withered)) | 3 (Herbicidal rate of 40% or more and less than 70%) | 4 (Herbicidal rate of 70% or more and less than 90%) | 5 (Herbicidal rate of 90% or more (almost completely withered)) | 0 (Herbicidal rate of 5% or less (almost no effect)) | 5 (Herbicidal rate of 90% or more (almost completely withered)) | 5 (Herbicidal rate of 90% or more (almost completely withered)) | 5 (Herbicidal rate of 90% or more (almost completely withered)) | 0 (Herbicidal rate of 5% or less (almost no effect)) |  |  | herbicidal effect rating, A: late watergrass (late watergrass [5]; [10]): 5 (Herbicidal rate of 90% or more (almost completely withered)); herbicidal effect rating, C: oval-leafed pondweed (oval-leafed pondweed [8]; [10]): 4 (Herbicidal rate of 70% or more and less than 90%)
CCCC(=O)Oc1c(C)nn(C)c(=O)c1-c1c(-c2ccc(SCC)cc2)oc2ccc(C)cc12 [9-058] | 0 (Herbicidal rate of 5% or less (almost no effect)) | 4 (Herbicidal rate of 70% or more and less than 90%) | 3 (Herbicidal rate of 40% or more and less than 70%) | 5 (Herbicidal rate of 90% or more (almost completely withered)) | 5 (Herbicidal rate of 90% or more (almost completely withered)) | 5 (Herbicidal rate of 90% or more (almost completely withered)) | 5 (Herbicidal rate of 90% or more (almost completely withered)) | 3 (Herbicidal rate of 40% or more and less than 70%) | 5 (Herbicidal rate of 90% or more (almost completely withered)) | 5 (Herbicidal rate of 90% or more (almost completely withered)) | 0 (Herbicidal rate of 5% or less (almost no effect)) | 5 (Herbicidal rate of 90% or more (almost completely withered)) | 5 (Herbicidal rate of 90% or more (almost completely withered)) | 5 (Herbicidal rate of 90% or more (almost completely withered)) | 0 (Herbicidal rate of 5% or less (almost no effect)) | 4 (Herbicidal rate of 70% or more and less than 90%) | 4 (Herbicidal rate of 70% or more and less than 90%) | 
CCCC(=O)Oc1c(C)nn(C)c(=O)c1-c1c(-c2ccc(SC(C)C)cc2)oc2ccc(C)cc12 [9-060] |  |  |  |  |  |  |  |  |  |  |  |  |  |  |  |  |  | I: wild oat, herbicidal effect grade (wild oat; [11]): 0 (Herbicidal rate of 5% or less (almost no effect)); F (southern crabgrass) herbicidal effect grade (southern crabgrass [1]; 402 g/ha): 0 (Herbicidal rate of 5% or less (almost no effect)); P: chickweed, herbicidal effect grade (chickweed; [11]): 1 (Herbicidal rate of 5% or more and less than 20%); Herbicidal effect, B: Japanese bulrush (Japanese bulrush; [11]): 4 (Herbicidal rate of 70% or more and less than 90%); G (green foxtail) herbicidal effect grade (green foxtail; 402 g/ha): 5 (Herbicidal rate of 90% or more (almost completely withered)); Herbicidal effect on H (barnyard grass), foliage application (barnyard grass; [11]): 4 (Herbicidal rate of 70% or more and less than 90%); R: persian speedwell, herbicidal effect grade (persian speedwell; [11]): 5 (Herbicidal rate of 90% or more (almost completely withered)); M: velvetleaf, herbicidal effect grade (velvetleaf; [11]): 3 (Herbicidal rate of 40% or more and less than 70%); F: southern crabgrass, herbicidal effect grade (southern crabgrass [2]; [11]): 1 (Herbicidal rate of 5% or more and less than 20%); N (redroot pigweed) herbicidal effect grade (redroot pigweed [3]; 402 g/ha): 5 (Herbicidal rate of 90% or more (almost completely withered)); L: windgrass, herbicidal effect grade (windgrass; [11]): 0 (Herbicidal rate of 5% or less (almost no effect)); Herbicidal effect, A: late watergrass (late watergrass [4]; [11]): 5 (Herbicidal rate of 90% or more (almost completely withered)); herbicidal effect grade, A: late watergrass (late watergrass [5]; [11]): 4 (Herbicidal rate of 70% or more and less than 90%); Herbicidal effect, C: oval-leafed pondweed (oval-leafed pondweed [6]; [11]): 5 (Herbicidal rate of 90% or more (almost completely withered)); N: redroot pigweed, herbicidal effect grade (redroot pigweed [7]; [11]): 5 (Herbicidal rate of 90% or more (almost completely withered)); Q: false cleavers, herbicidal effect grade (false cleavers; [11]): 0 (Herbicidal rate of 5% or less (almost no effect)); herbicidal effect grade, C: oval-leafed pondweed (oval-leafed pondweed [8]; [11]): 4 (Herbicidal rate of 70% or more and less than 90%)
CCCC(=O)Oc1c(C)nn(C)c(=O)c1-c1c(-c2ccc(COC)cc2)oc2ccc(C)cc12 [9-062] | 0 (Herbicidal rate of 5% or less (almost no effect)) | 5 (Herbicidal rate of 90% or more (almost completely withered)) | 3 (Herbicidal rate of 40% or more and less than 70%) | 5 (Herbicidal rate of 90% or more (almost completely withered)) | 5 (Herbicidal rate of 90% or more (almost completely withered)) | 5 (Herbicidal rate of 90% or more (almost completely withered)) | 5 (Herbicidal rate of 90% or more (almost completely withered)) | 5 (Herbicidal rate of 90% or more (almost completely withered)) | 4 (Herbicidal rate of 70% or more and less than 90%) | 5 (Herbicidal rate of 90% or more (almost completely withered)) | 0 (Herbicidal rate of 5% or less (almost no effect)) | 5 (Herbicidal rate of 90% or more (almost completely withered)) | 5 (Herbicidal rate of 90% or more (almost completely withered)) | 5 (Herbicidal rate of 90% or more (almost completely withered)) | 0 (Herbicidal rate of 5% or less (almost no effect)) | 3 (Herbicidal rate of 40% or more and less than 70%) | 3 (Herbicidal rate of 40% or more and less than 70%) | 
